# Reference: ChEMBL document CHEMBL1148413, “5-Fluorinated L-lysine analogues as selective induced nitric oxide synthase inhibitors” (J Med Chem, 2004)
# Tests used:
# Nitric oxide synthase 3 [1] = molecular target: T1, Nitric oxide synthase 3 (Homo sapiens, UniProt P29474); assay: (§1) Inhibition concentration against Endothelial nitric oxide synthase (eNOS) at 10 uM concentration
# T1 sequence (P29474 whole entry): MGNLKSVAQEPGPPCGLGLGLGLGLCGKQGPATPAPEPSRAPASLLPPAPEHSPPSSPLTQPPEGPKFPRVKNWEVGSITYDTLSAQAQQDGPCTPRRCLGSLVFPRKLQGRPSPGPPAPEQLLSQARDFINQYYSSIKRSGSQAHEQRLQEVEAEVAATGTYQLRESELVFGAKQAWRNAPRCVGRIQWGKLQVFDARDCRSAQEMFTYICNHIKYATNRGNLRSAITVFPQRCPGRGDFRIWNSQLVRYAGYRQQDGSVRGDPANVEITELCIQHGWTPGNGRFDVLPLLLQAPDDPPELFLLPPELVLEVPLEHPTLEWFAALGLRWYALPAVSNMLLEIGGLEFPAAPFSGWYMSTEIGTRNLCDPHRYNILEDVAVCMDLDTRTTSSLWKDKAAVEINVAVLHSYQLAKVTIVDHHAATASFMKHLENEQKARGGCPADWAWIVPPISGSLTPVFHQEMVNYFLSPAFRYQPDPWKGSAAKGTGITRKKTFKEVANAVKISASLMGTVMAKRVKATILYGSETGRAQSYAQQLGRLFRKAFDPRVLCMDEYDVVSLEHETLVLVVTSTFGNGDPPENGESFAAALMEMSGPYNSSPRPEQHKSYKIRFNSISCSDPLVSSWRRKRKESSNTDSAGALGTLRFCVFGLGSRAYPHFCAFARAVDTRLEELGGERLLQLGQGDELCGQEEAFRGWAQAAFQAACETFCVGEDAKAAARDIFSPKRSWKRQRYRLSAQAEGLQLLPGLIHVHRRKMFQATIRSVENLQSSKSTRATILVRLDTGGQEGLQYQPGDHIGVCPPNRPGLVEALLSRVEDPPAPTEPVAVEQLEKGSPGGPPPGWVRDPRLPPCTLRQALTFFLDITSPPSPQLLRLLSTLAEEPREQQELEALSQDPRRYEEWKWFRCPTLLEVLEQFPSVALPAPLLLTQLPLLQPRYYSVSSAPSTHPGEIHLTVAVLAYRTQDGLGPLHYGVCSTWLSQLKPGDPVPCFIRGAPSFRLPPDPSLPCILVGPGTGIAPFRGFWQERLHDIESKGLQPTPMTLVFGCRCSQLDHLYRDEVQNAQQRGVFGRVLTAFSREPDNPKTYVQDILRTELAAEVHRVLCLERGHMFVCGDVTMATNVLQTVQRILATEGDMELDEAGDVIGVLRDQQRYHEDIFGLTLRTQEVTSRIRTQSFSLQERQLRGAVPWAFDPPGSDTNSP
# [2] = molecular target: T2, Nitric oxide synthase 3 (Homo sapiens) (UniProt P29474); assay: Selectivity for endothelial nitric oxide synthase over inducible nitric oxide synthase
# T2 sequence (whole entry): T1 sequence (P29474 whole entry)
# [3] = molecular target: T3, Nitric oxide synthase, inducible (Homo sapiens, UniProt P35228); assay: Inhibition concentration against Inducible nitric oxide synthase (iNOS) at 10 uM concentration
# T3 sequence (P35228 whole entry): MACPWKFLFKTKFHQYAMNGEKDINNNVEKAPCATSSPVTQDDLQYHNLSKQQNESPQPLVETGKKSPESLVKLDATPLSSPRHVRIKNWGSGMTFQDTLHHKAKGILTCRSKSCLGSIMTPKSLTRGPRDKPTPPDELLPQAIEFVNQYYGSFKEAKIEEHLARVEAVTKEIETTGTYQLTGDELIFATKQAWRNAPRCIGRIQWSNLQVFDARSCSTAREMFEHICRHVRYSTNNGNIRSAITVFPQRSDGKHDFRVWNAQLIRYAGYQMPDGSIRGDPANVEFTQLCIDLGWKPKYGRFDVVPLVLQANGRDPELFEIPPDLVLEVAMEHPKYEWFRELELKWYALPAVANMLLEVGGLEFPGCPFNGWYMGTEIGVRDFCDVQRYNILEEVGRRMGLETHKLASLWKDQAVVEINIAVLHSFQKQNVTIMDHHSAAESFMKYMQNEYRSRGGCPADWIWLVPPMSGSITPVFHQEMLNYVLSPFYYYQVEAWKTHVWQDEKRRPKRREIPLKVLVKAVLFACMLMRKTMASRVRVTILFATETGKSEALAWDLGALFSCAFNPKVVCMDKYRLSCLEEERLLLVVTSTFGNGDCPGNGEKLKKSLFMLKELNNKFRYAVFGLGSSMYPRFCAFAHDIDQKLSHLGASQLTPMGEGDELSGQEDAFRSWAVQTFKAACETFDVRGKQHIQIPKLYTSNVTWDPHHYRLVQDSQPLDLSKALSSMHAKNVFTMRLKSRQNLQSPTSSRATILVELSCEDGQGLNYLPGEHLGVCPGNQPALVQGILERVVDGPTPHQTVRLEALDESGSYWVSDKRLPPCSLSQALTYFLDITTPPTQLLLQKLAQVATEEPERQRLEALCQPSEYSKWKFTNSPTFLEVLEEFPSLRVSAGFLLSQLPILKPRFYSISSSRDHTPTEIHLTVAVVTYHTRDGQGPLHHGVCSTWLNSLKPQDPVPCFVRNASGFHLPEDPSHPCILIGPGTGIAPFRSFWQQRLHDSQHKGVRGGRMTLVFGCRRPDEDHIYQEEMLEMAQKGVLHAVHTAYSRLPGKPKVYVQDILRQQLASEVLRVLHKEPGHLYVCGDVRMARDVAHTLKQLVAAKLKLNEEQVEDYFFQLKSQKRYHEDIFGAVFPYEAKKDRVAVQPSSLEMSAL
# Nitric oxide synthase 1 [4] = molecular target: T4, Nitric oxide synthase 1 (Homo sapiens, UniProt P29475); assay: Inhibition concentration against Neuronal nitric oxide synthase (nNOS) at 10 uM concentration
# T4 sequence (P29475 whole entry): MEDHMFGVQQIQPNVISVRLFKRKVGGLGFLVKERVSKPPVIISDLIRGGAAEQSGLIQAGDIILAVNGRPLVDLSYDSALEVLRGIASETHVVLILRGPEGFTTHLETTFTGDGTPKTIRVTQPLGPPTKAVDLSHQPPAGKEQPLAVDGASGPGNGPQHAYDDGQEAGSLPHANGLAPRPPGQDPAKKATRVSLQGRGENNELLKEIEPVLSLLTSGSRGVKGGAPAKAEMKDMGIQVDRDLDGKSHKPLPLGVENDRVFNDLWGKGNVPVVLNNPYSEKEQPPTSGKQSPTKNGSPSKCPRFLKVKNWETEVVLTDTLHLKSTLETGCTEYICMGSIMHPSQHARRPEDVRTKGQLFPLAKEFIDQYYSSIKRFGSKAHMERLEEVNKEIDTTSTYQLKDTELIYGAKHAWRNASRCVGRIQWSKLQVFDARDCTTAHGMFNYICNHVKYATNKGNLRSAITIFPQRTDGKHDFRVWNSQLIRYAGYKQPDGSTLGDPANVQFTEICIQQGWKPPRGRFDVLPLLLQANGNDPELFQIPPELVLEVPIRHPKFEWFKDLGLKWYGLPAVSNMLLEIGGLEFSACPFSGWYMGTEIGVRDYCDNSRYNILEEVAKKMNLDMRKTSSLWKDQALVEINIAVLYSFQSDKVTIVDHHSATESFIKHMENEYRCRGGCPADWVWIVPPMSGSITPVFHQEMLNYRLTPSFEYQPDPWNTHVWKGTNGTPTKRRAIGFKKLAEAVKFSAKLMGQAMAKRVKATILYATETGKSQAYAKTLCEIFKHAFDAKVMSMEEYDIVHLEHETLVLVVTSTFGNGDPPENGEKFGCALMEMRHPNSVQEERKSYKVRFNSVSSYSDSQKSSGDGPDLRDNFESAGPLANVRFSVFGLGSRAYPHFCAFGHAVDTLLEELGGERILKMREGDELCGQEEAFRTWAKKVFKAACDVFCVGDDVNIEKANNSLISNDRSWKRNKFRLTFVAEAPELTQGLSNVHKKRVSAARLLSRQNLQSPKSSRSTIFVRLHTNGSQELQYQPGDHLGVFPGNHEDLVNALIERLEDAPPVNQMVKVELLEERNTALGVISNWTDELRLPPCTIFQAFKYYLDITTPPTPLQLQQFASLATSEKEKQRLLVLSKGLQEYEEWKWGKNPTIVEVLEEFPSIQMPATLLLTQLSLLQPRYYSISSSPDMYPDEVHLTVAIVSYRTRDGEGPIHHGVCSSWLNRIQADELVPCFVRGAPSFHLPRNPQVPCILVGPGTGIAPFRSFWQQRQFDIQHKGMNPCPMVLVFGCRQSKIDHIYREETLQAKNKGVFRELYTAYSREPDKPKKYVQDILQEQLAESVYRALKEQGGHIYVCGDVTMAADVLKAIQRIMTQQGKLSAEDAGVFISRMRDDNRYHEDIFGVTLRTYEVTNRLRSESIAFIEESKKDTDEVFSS
# Nitric oxide synthase 1 [5] = molecular target: T4, Nitric oxide synthase 1; assay: Selectivity for Neuronal nitric oxide synthase over inducible nitric oxide synthase
# [6] = molecular target: T3, Nitric oxide synthase, inducible; details: 10 uM
# Nitric oxide synthase 1 [7] = molecular target: T4, Nitric oxide synthase 1; details: 10 uM
# Nitric oxide synthase 3 [8] = molecular target: T1, Nitric oxide synthase 3; assay: Percent inhibition against Endothelial nitric oxide synthase (eNOS) at 10 uM concentration
# [9] = molecular target: T2, Nitric oxide synthase 3 (Homo sapiens); assay: as §1
SMILES,IC50 (Nitric oxide synthase 3 [1]),Selectivity [2],IC50 [3],IC50 (Nitric oxide synthase 1 [4]),Selectivity (Nitric oxide synthase 1 [5]),inhibition [6],inhibition (Nitric oxide synthase 1 [7]),Inhibition (Nitric oxide synthase 3 [8]),inhibition [9]
CC(=N)NCC(F)(F)CCC(N)C(=O)O (centres undefined),139 µM,7,21.4 µM,140 µM,7,–,–,–,–
CC(=N)NC[C@@H](F)CC[C@@H](N)C(=O)O,374 µM,8,47.8 µM,311 µM,7,–,–,–,–
CC(=N)NCC(F)(F)CC[C@H](N)C(=O)O,57.5 µM,7,8.75 µM,33.8 µM,4,–,–,–,–
CC(=N)NC[C@H](F)CC[C@H](N)C(=O)O,–,–,–,–,–,4%,0%,28.2%,–
CC(=N)NC[C@H](F)CC[C@@H](N)C(=O)O,–,–,–,–,–,8.9%,18%,–,6.52%

# The remaining lines, values ahead:
IC50 (Nitric oxide synthase 3 [1]),Selectivity [2],IC50 [3],IC50 (Nitric oxide synthase 1 [4]),Selectivity (Nitric oxide synthase 1 [5]),inhibition [6],inhibition (Nitric oxide synthase 1 [7]),Inhibition (Nitric oxide synthase 3 [8]),inhibition [9],SMILES
182 µM,23,7.84 µM,70.4 µM,9,–,–,–,–,CC(=N)NCC(F)CCC(N)C(=O)O (centres undefined)
81 µM,34,2.36 µM,21.7 µM,9,–,–,–,–,CC(=N)NC[C@@H](F)CC[C@H](N)C(=O)O
–,28,4.9 µM,–,7,–,–,–,–,CC(=N)NCCCC[C@H](N)C(=O)O [L-NIL]
